Measured values published in patent US8952024B2, “Herbicidal pyrimidone derivatives” (E I du Pont de Nemours and Company, priority 2009, dated 2015).

How the values were obtained:
Assay type in all cases: in vivo
[1] = system: bermudagrass (Cynodon dactylon); assay: Test B pre-/postemergence plant response; conditions: for Plant response rating, Bermudagrass: Postemergence
In short: (§1)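 Ratings reflect visual comparison with untreated controls 13 to 15 days after application, from 0 (no effect) to 100 (complete control). Application was preemergence to seeded loam/sand soil or postemergence to 1- to 4-leaf plants, with compound in a non-phytotoxic, surfactant-containing solvent.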

[2] = system: blackgrass (Alopecurus myosuroides); assay: Test B pre-/postemergence plant response; conditions: for Plant response rating, Blackgrass: Postemergence
In short: as §1

[3] = system: cocklebur (Xanthium strumarium); assay: Test B pre-/postemergence plant response; conditions: for Plant response rating, Cocklebur: Postemergence
In short: as §1

[4] = system: downy bromegrass (Bromus tectorum); assay: Test B pre-/postemergence plant response; conditions: for Plant response rating, Bromegrass, Downy: Postemergence
In short: as §1

[5] = system: giant foxtail (Setaria faberii); assay: Test B pre-/postemergence plant response; conditions: for Plant response rating, Foxtail, Giant: Postemergence
In short: as §1

[6] = system: green foxtail (Setaria viridis); assay: Test B pre-/postemergence plant response; conditions: for Plant response rating, Foxtail, Green: Postemergence
In short: as §1

[7] = system: johnsongrass (Sorghum halepense); assay: Test B pre-/postemergence plant response; conditions: for Plant response rating, Johnsongrass: Postemergence
In short: as §1

kochia (Kochia scoparia) = assay: Test B pre-/postemergence plant response; conditions: for Plant response rating, Kochia: Postemergence
In short: as §1

[8] = system: morningglory (Ipomoea coccinea); assay: Test B pre-/postemergence plant response; conditions: for Plant response rating, Morningglory: Postemergence
In short: as §1

[9] = system: ragweed (common ragweed, Ambrosia elatior); assay: Test B pre-/postemergence plant response; conditions: for Plant response rating, Ragweed: Postemergence
In short: as §1

soybean (Glycine max) = assay: Test B pre-/postemergence plant response; conditions: for Plant response rating, Soybean: Postemergence
In short: as §1

[10] = system: velvetleaf (Abutilon theophrasti); assay: Test B pre-/postemergence plant response; conditions: for Plant response rating, Velvetleaf: Postemergence
In short: as §1

[11] = system: wheat (Triticum aestivum); assay: Test B pre-/postemergence plant response; conditions: for Plant response rating, Wheat: Postemergence
In short: as §1

wild oat (Avena fatua) = assay: Test B pre-/postemergence plant response; conditions: for Plant response rating, Oat, Wild: Postemergence
In short: as §1

[12] = system: yellow nutsedge (Cyperus esculentus); assay: Test B pre-/postemergence plant response; conditions: for Plant response rating, Nutsedge, Yellow: Postemergence
In short: as §1

[13] = system: canarygrass (Phalaris minor); assay: Test B postemergence plant response; conditions: for Plant response rating, Canarygrass: Postemergence
In short: (§2)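 Plants grown in peat/vermiculite medium were sprayed postemergence at 2–18 cm height (1- to 4-leaf stage). After 13–15 days in the greenhouse, response was rated visually against untreated controls on a 0–100 scale (0 no effect, 100 complete control).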

[14] = system: chickweed (Stellaria media); assay: Test B postemergence plant response; conditions: for Plant response rating, Chickweed: Postemergence
In short: as §2

[15] = system: windgrass (Apera spica-venti); assay: Test B postemergence plant response; conditions: for Plant response rating, Windgrass: Postemergence
In short: as §2

[16] = 62 g ai/ha, postemergence, 0 is no effect, 100 is complete control, 13 to 15 days
[17] = 31 g ai/ha, 0 to 100 scale (0 no effect, 100 complete control)
[18] = 125 g ai/ha, scale 0 to 100 (0 no effect, 100 complete control)

CCn1c(-c2cc(F)cc(F)c2)ncc(C(=O)C2=C(O)CCCC2=O)c1=O [Compound 122]
Plant response rating, Bermudagrass ([1]; 16 g ai/ha, 0 to 100 scale): 65
Bermudagrass plant response rating (0 to 100 scale) [1, 16]: 80
Plant response rating, Bermudagrass [1, 17]: 75
Plant response rating, Bermudagrass [1, 18]: 85
Plant response rating, Blackgrass ([2]; 16 g ai/ha, 0 to 100 scale): 0
Blackgrass plant response rating (0 to 100 scale) [2, 16]: 5
Plant response rating, Blackgrass [2, 17]: 5
Plant response rating, Blackgrass [2, 18]: 15
Plant response rating, Cocklebur ([3]; 16 g ai/ha, 0 to 100 scale): 0
Cocklebur plant response rating (0 to 100 scale) [3, 16]: 45
Plant response rating, Cocklebur [3, 17]: 20
Plant response rating, Cocklebur [3, 18]: 85
Plant response rating, Bromegrass, Downy ([4]; 16 g ai/ha, 0 to 100 scale): 5
Bromegrass, Downy plant response rating (0 to 100 scale) [4, 16]: 5
Plant response rating, Bromegrass, Downy [4, 17]: 5
Plant response rating, Bromegrass, Downy [4, 18]: 50
Plant response rating, Foxtail, Giant ([5]; 16 g ai/ha, 0 to 100 scale): 65
Foxtail, Giant plant response rating (0 to 100 scale) [5, 16]: 75
Plant response rating, Foxtail, Giant [5, 17]: 70
Plant response rating, Foxtail, Giant [5, 18]: 80
Plant response rating, Foxtail, Green ([6]; 16 g ai/ha, 0 to 100 scale): 40
Foxtail, Green plant response rating (0 to 100 scale) [6, 16]: 85
Plant response rating, Foxtail, Green [6, 17]: 80
Plant response rating, Foxtail, Green [6, 18]: 85
Plant response rating, Johnsongrass ([7]; 16 g ai/ha, 0 to 100 scale): 20
Johnsongrass plant response rating (0 to 100 scale) [7, 16]: 65
Plant response rating, Johnsongrass [7, 17]: 45
Plant response rating, Johnsongrass [7, 18]: 75
Plant response rating, Kochia (kochia (Kochia scoparia); 16 g ai/ha, 0 to 100 scale): 0
Kochia plant response rating (0 to 100 scale) (kochia (Kochia scoparia); [16]): 0
Plant response rating, Kochia (kochia (Kochia scoparia); [17]): 0
Plant response rating, Kochia (kochia (Kochia scoparia); [18]): 45
Plant response rating, Morningglory ([8]; 16 g ai/ha, 0 to 100 scale): 55
Morningglory plant response rating (0 to 100 scale) [8, 16]: 75
Plant response rating, Morningglory [8, 17]: 60
Plant response rating, Morningglory [8, 18]: 85
Plant response rating, Ragweed ([9]; 16 g ai/ha, 0 to 100 scale): 55
Ragweed plant response rating (0 to 100 scale) [9, 16]: 60
Plant response rating, Ragweed [9, 17]: 60
Plant response rating, Ragweed [9, 18]: 75
Plant response rating, Soybean (soybean (Glycine max); 16 g ai/ha, 0 to 100 scale): 20
Soybean plant response rating (0 to 100 scale) (soybean (Glycine max); [16]): 75
Plant response rating, Soybean (soybean (Glycine max); [17]): 45
Plant response rating, Soybean (soybean (Glycine max); [18]): 80
Plant response rating, Velvetleaf ([10]; 16 g ai/ha, 0 to 100 scale): 75
Velvetleaf plant response rating (0 to 100 scale) [10, 16]: 90
Plant response rating, Velvetleaf [10, 17]: 80
Plant response rating, Velvetleaf [10, 18]: 98
Plant response rating, Wheat ([11]; 16 g ai/ha, 0 to 100 scale): 5
Wheat plant response rating (0 to 100 scale) [11, 16]: 30
Plant response rating, Wheat [11, 17]: 15
Plant response rating, Wheat [11, 18]: 50
Plant response rating, Oat, Wild (wild oat (Avena fatua); 16 g ai/ha, 0 to 100 scale): 5
Oat, Wild plant response rating (0 to 100 scale) (wild oat (Avena fatua); [16]): 30
Plant response rating, Oat, Wild (wild oat (Avena fatua); [17]): 5
Plant response rating, Oat, Wild (wild oat (Avena fatua); [18]): 35
Plant response rating, Nutsedge, Yellow ([12]; 16 g ai/ha, 0 to 100 scale): 35
Nutsedge, Yellow plant response rating (0 to 100 scale) [12, 16]: 70
Plant response rating, Nutsedge, Yellow [12, 17]: 55
Plant response rating, Nutsedge, Yellow [12, 18]: 75
Plant response rating, Canarygrass ([13]; 16 g ai/ha, 0 to 100 scale): 0
Canarygrass plant response rating (0 to 100 scale) [13, 16]: 35
Plant response rating, Canarygrass [13, 17]: 10
Plant response rating, Canarygrass [13, 18]: 45
Plant response rating, Chickweed ([14]; 16 g ai/ha, 0 to 100 scale): 65
Chickweed plant response rating (0 to 100 scale) [14, 16]: 70
Plant response rating, Chickweed [14, 17]: 70
Plant response rating, Chickweed [14, 18]: 80
Plant response rating, Windgrass ([15]; 16 g ai/ha, 0 to 100 scale): 5
Windgrass plant response rating (0 to 100 scale) [15, 16]: 30
Plant response rating, Windgrass [15, 17]: 5
Plant response rating, Windgrass [15, 18]: 50
